From patent US12522597B2, “Methods and compositions for modulating splicing” (Skyhawk Therapeutics, Inc., priority 2019, dated 2026)

Experiments:
[1] = system: MDR1-MDCK cell monolayers; test: MDCK-MDR1 permeability assay (BBB penetration potential); format: in vitro ADME; settings: dog, MDCK-MDR1, 120 min, 5 μM, pH 7.4
Experimental: (§1) Each determination is performed in duplicate. […] Analytical conditions are outlined below.

MDR1 = test: as above; format: in vitro ADME; settings: dog; for efflux ratio at 120 min, 5 μM: MDCK-MDR1, pH 7.4, MDCK-MDR1: Efflux; for Papp A→B at 120 min, 5 μM: MDCK-MDR1, pH 7.4, MDCK-MDR1: Papp A-B; for Papp B→A at 120 min, 5 μM: MDCK-MDR1, pH 7.4, MDCK-MDR1: Papp B-A
Experimental: as §1

mHTT protein = mHTT protein assay (2B7-MW1, Mesoscale Discovery); format: cell-based, human; settings: GM04724 (CAG 70/20) Huntington's disease patient lymphoblast cells, 48 hours, 2B7-MW1 MSD; read-out: HTT Potency - Protein EC50 mHTT (average)
Experimental: Compounds are tested on GM04724 (CAG 70/20) Huntington's disease patient lymphoblast cells at doses ranging from 10 μM to 0.6 nM. 4,500 cells/well are seeded in 384 well plates. One plate replica is carried out for parallel viability testing by CellTiter Glo (CTG). Compounds are incubated for 48 hours, mHTT protein levels are assessed by the 2B7-MW1 assay via Mesoscale Discovery (MSD) as previously reported (Macdonald et al., 2014). The antibody pair is comprised of previously characterized monoclonals (2B7 and MW1) interrogating two regions for HTT conformation and biological properties: the N17 domain and the polyQ domain (Baldo et al., 2012; Ko et., 2001). 2B7-MW1 is dependent on subject/animal specific levels of HTT at the time of treatment. 2B7-MW1 is dependent on polyQ expansion (e.g., the higher the expansion the higher the signal) and on mHTT size (e.g., a similar polyQ will give higher signal with smaller HTT size). The viability readout is carried out by CTG according to the manufacturer's instructions.

| SMILES | MDCK-MDR1: % Recov A-B [1] | MDCK-MDR1: % Recov B-A [1] | efflux ratio at 120 min, 5 μM (MDR1) | Papp A→B at 120 min, 5 μM (MDR1) | Papp B→A at 120 min, 5 μM (MDR1) | EC50 (mHTT protein) |
| --- | --- | --- | --- | --- | --- | --- |
| Oc1cc(-n2ncc3ccccc32)ccc1-c1ccc(O[C@H]2C[C@@H]3CC[C@@H](N3)[C@H]2F)nn1 (single isomer, unassigned) [114-ENT2] | 18% | 42% | 4 | 3.86 ×10⁻⁶ cm/s | 15.1 ×10⁻⁶ cm/s | 501 to 10000 nM |
| Oc1cc(-c2nnco2)c(F)cc1-c1ccc(O[C@@H]2C[C@H]3CC[C@H](N3)[C@@H]2F)nn1 (stereo in doubt) [142-ENT1, 4-fluoro-2-(6-(((1S,2S,3R,5R)-2-fluoro-8-azabicyclo[3.2.1]octan-3-yl)oxy)pyridazin-3-yl)-5-(1,3,4-oxadiazol-2-yl)phenol] | 98% | 103% | 6 | 6.9 ×10⁻⁶ cm/s | 41.8 ×10⁻⁶ cm/s | 51 to 100 nM |
| Oc1cc(-n2ccnc2)ccc1-c1ccc(O[C@H]2C[C@@H]3CC(F)(F)[C@H](C2)N3)nn1 (single isomer, unassigned) [51-ENT2] | 86% | 90% | 2 | 25.8 ×10⁻⁶ cm/s | 46.7 ×10⁻⁶ cm/s | 501 to 10000 nM |
| Oc1cc2nccnc2cc1-c1ccc(O[C@@H]2C[C@H]3CCC[C@H](N3)[C@@H]2F)nn1 (single isomer, unassigned) [104-ENT1] | 95% | 92% | 6 | 7.17 ×10⁻⁶ cm/s | 45.7 ×10⁻⁶ cm/s | 501 to 10000 nM |
| Cc1ccc(-c2ccc(-c3ccc(O[C@H]4C[C@@H]5CCC[C@@H](N5)[C@H]4F)nn3)c(O)c2)cn1 (single isomer, unassigned) [67-ENT2] | 59% | 76% | 6 | 3.34 ×10⁻⁶ cm/s | 20.7 ×10⁻⁶ cm/s | 101 to 500 nM |
| N#Cc1ccc(-c2ccc(O[C@H]3C[C@@H]4CCC[C@@H](N4)[C@H]3F)nn2)c(O)c1 (single isomer, unassigned) [110-ENT2] | 95% | 97% | 8 | 7.44 ×10⁻⁶ cm/s | 56.9 ×10⁻⁶ cm/s | 501 to 10000 nM |
| CN(C)C(=O)c1cc2cc(O)c(-c3ccc(O[C@@H]4C[C@@]5(C)CCC[C@](C)(N5)[C@@H]4F)nn3)cc2o1 (single isomer, unassigned) [155-ENT1] | 90% | 95% | 16 | 3.71 ×10⁻⁶ cm/s | 59.4 ×10⁻⁶ cm/s | 501 to 10000 nM |
| Cn1cnc(-c2ccc(-c3ccc(O[C@H]4C[C@]5(C)CCC[C@@](C)(N5)[C@H]4F)nn3)c(O)c2)cc1=O (single isomer, unassigned) [139-ENT2] | 88% | 87% | 15 | 1.97 ×10⁻⁶ cm/s | 28.7 ×10⁻⁶ cm/s | 0.01 to 15 nM |
| Cn1cc(-c2ccc(-c3ccc(O[C@@H]4C[C@H]5COC[C@H](N5)[C@@H]4F)nn3)c(O)c2)cn1 (single isomer, unassigned) [124-ENT1] | 82% | 88% | 3 | 17.5 ×10⁻⁶ cm/s | 51.5 ×10⁻⁶ cm/s | 501 to 10000 nM |
| Cn1cc(-c2ccc(-c3ccc(O[C@H]4C[C@@H]5CCC[C@@H](N5)[C@H]4F)nn3)c(O)c2)c(F)n1 (single isomer, unassigned) [109-ENT2] | 51% | 80% | 4 | 6.3 ×10⁻⁶ cm/s | 24.5 ×10⁻⁶ cm/s | 16 to 50 nM |
| C[C@]12CC[C@](C)(N1)[C@H](F)[C@H](Oc1ccc(-c3ccc(-n4cccn4)cc3O)nn1)C2 (single isomer, unassigned) [153-ENT1] | 67% | 76% | 5 | 7.44 ×10⁻⁶ cm/s | 34.4 ×10⁻⁶ cm/s | 51 to 100 nM |
| Cc1ccc(-c2ccc(-c3ccc(O[C@H]4C[C@@H]5CCC[C@@H](N5)[C@H]4F)nn3)c(O)c2)s1 (single isomer, unassigned) [100-ENT2] | 18% | 57% | 1 | 1.14 ×10⁻⁶ cm/s | 0.68 ×10⁻⁶ cm/s | 101 to 500 nM |
| Oc1cc(-n2ccnc2)ccc1-c1ccc(O[C@@H]2C[C@H]3CC[C@H](N3)[C@@H]2F)nn1 (single isomer, unassigned) [36-ENT1] | 74% | 83% | 5 | 5.28 ×10⁻⁶ cm/s | 26 ×10⁻⁶ cm/s | 51 to 100 nM |
| Cc1ccc(-c2ccc(-c3ccc(O[C@@H]4C[C@H]5CCC[C@H](N5)[C@@H]4F)nn3)c(O)c2)o1 (single isomer, unassigned) [99-ENT1] | 9% | 47% | 1 | 2.07 ×10⁻⁶ cm/s | 2.37 ×10⁻⁶ cm/s | 101 to 500 nM |
| Oc1cc(-c2ccccn2)ccc1-c1ccc(O[C@@H]2C[C@H]3CCC[C@H](N3)[C@@H]2F)nn1 (single isomer, unassigned) [77-ENT1] | 52% | 70% | 4 | 5.64 ×10⁻⁶ cm/s | 22.7 ×10⁻⁶ cm/s | 101 to 500 nM |
| Cc1cncc(-c2ccc(-c3ccc(O[C@@H]4C[C@H]5CCC[C@H](N5)[C@@H]4F)nn3)c(O)c2)c1 (single isomer, unassigned) [89-ENT1] | 68% | 76% | 6 | 6.05 ×10⁻⁶ cm/s | 33.8 ×10⁻⁶ cm/s | 501 to 10000 nM |
| Cc1nc(-c2ccc(-c3ccc(O[C@@H]4C[C@H]5CCC[C@H](N5)[C@@H]4F)nn3)c(O)c2)cs1 (single isomer, unassigned) [71-ENT2] | 50% | 67% | 6 | 5.78 ×10⁻⁶ cm/s | 33.1 ×10⁻⁶ cm/s | 16 to 50 nM |
| Oc1cc(-n2ncc3ccccc32)ccc1-c1ccc(O[C@@H]2C[C@H]3CC[C@H](N3)[C@@H]2F)nn1 (single isomer, unassigned) [114-ENT1] | 22% | 47% | 3 | 4.74 ×10⁻⁶ cm/s | 13.5 ×10⁻⁶ cm/s | 501 to 10000 nM |
| Oc1cc2ccncc2cc1-c1ccc(O[C@@H]2C[C@H]3CCC[C@H](N3)[C@@H]2F)nn1 (single isomer, unassigned) [81-ENT1] | 69% | 77% | 3 | 7.34 ×10⁻⁶ cm/s | 22.8 ×10⁻⁶ cm/s | 501 to 10000 nM |
| Oc1cc(-c2cc[nH]n2)ccc1-c1ccc(O[C@H]2C[C@@H]3CCC[C@@H](N3)[C@H]2F)nn1 (single isomer, unassigned) [66-ENT2] | 79% | 78% | 9 | 1.18 ×10⁻⁶ cm/s | 11.2 ×10⁻⁶ cm/s | 51 to 100 nM |
| Cn1cc(-c2ccc(-c3ccc(O[C@H]4C[C@H]5CCC[C@H](N5)[C@H]4F)nn3)c(O)c2)cn1 (single isomer, unassigned) [122-ENT1] | 50% | 66% | 5 | 4.73 ×10⁻⁶ cm/s | 23.3 ×10⁻⁶ cm/s | 501 to 10000 nM |
| Cc1cc(-c2ccc(-c3ccc(O[C@@H]4C[C@H]5CCC[C@H](N5)[C@@H]4F)nn3)c(O)c2)cs1 (single isomer, unassigned) [101-ENT1] | 25% | 70% | 1 | 0.86 ×10⁻⁶ cm/s | 0.76 ×10⁻⁶ cm/s | 101 to 500 nM |
| C[C@@]12CCC[C@@](C)(N1)[C@@H](F)[C@@H](Oc1ccc(-c3ccc(C#N)cc3O)nn1)C2 (single isomer, unassigned) [145-ENT2] | 89% | 100% | 8 | 7.75 ×10⁻⁶ cm/s | 58.9 ×10⁻⁶ cm/s | 501 to 10000 nM |
| Cc1nnc(-c2ccc(-c3ccc(O[C@@H]4C[C@H]5CCC[C@H](N5)[C@@H]4F)nn3)c(O)c2)o1 (single isomer, unassigned) [94-ENT1] | 104% | 70% | 7 | 6.2 ×10⁻⁶ cm/s | 41.2 ×10⁻⁶ cm/s | 101 to 500 nM |
